Data published in US20040029823A1, “Antisense oligonucleotide compositions and methods for the modulation of JNK proteins” (priority 1997, published 2004).
Strand notation (5' to 3'): a small letter for the sugar, then the base; units joined by * are phosphorothioate-linked, units joined directly phosphodiester-linked; [ ] holds rarer units or linkages, { } end groups; capitals alone tell only the bases. e = 2'-O-(2-methoxyethyl) (MOE); [5mC] = 5-methylcytosine; d = 2'-deoxy (DNA)

Experiments:
[1] = test system: rat JNK2 mRNA; test: Northern assay of rat JNK2 (p54a) mRNA in A10 aortic smooth muscle cells; type: cell-based; parameters: inhibition of rat JNK2 mRNA levels / % INHIBITION: concentration or dose not given beside the values; details: for % INHIBITION / % EXPRESSION: rat JNK2 (p54a) mRNA in A10 cells; for % EXPRESSION: relative to LIPOFECTIN-only control; for inhibition of rat JNK2 mRNA levels: A10 cells (Table 22); for % EXPRESSION JNK2 / capacity to modulate both JNK1 and JNK2 (Pan JNK): A10 cells; for capacity to modulate both JNK1 and JNK2 (Pan JNK): rat JNK1 and JNK2 mRNA
Protocol: (§1) In order to study the role of JNK proteins in animal models, oligonucleotides targeted to the genes encoding JNK1, JNK2 and JNK3 of Rattus norvegicus were prepared. These oligonucleotides are 2′-methoxyethoxy, phosphodiester/2′-hydroxyl, phosphorothioate/2′-methoxyethoxy, phosphodiester “gapmers” in which every cytosine residue is 5-methylcytosine (m5c). These antisense compounds were synthesized according to the methods of the disclosure. Certain of these oligonucleotides are additionally specifically hybridizable to JNK genes from other species as indicated herein. The oligonucleotides described in this Example were tested for their ability to modulate rat JNK mRNA levels essentially according to the methods described in the preceding Examples, with the exceptions that the cell line used was rat A10 aortic smooth muscle cells (ATCC No. ATCC CRL-1476) and the probes used were specific for rat JNK1, JNK2 or JNK3 (see infra). A10 cells were grown and treated with oligonucleotides essentially as described by (Cioffi et al. Mol. Pharmacol., 1997, 51, 383).
(§2) These antisense compounds were tested for their ability to modulate levels of p54? (JNK1) and p54a (JNK2) mRNA in A10 cells via Northern assays. Due to the high degree of sequence identity between the human and rat genes, radiolabeled human JNK1 (Example 3) and JNK2 (Example 4) cDNAs functioned as specific probes for the rat homologs.
These antisense compounds were tested for their ability to modulate levels of p54a (JNK2) mRNA in A10 cells using the radiolabeled human JNK2 cDNA as a probe as described supra. Oligonucleotides showing levels of inhibition from ≧ about 60% to about 100% of rat JNK2 mRNA levels include ISIS Nos. 18254, 18255, 18257, 18258, 18259, 18260 and 18265 (SEQ ID NOS: 125, 126, 128, 129, 130, 131 and 136, respectively). These oligonucleotides are preferred embodiments of the invention for modulating rat JNK2 expression. […] These oligonucleotides are thus more preferred embodiments of the invention for modulating rat JNK2 expression. ISIS 18259 (SEQ ID NO: 130) was chosen for use in further studies (infra).

[2] = test system: rat JNK1 mRNA; test: Northern assay of rat JNK1 (p54?) mRNA in A10 aortic smooth muscle cells; type: cell-based; details: for % EXPRESSION JNK1: A10 cells; for inhibition of rat JNK1 mRNA levels: A10 cells (Table 20)
Protocol: as §1, §2

[3] = rat JNK1 mRNA, oligonucleotides targeted to rat JNK1
[4] = rat JNK2 mRNA, oligonucleotides targeted to rat JNK1

Substance | % INHIBITION [1] [%] | % EXPRESSION [1] [%] | % EXPRESSION JNK1 [2, 3] [%] | % EXPRESSION JNK2 [1, 4] [%] | inhibition of rat JNK1 mRNA levels [2] | other results
18255 (antisense eTeGeTeGeG*dT*dG*dT*dG*dA*dA*d[5mC]*dA*d[5mC]*dA*eTeTeTeAeA) [compound 18255] | 79 | 21 |  |  |  | 
18256 (antisense e[5mC]e[5mC]eAeTeA*dT*dG*dA*dA*dT*dA*dA*d[5mC]*d[5mC]*dT*eGeAe[5mC]eAeT) [compound 18256] | 20 | 80 |  |  |  | 
18257 (antisense eGeAeTeAeT*d[5mC]*dA*dA*d[5mC]*dA*dT*dT*d[5mC]*dT*d[5mC]*e[5mC]eTeTeGeT) [compound 18257] | 68 | 32 |  |  |  | inhibition of rat JNK2 mRNA levels [1]: ≥ 60%
18258 (antisense eGe[5mC]eTeTe[5mC]*dG*dT*d[5mC]*d[5mC]*dA*d[5mC]*dA*dG*dA*dG*eAeTe[5mC]e[5mC]eG) [compound 18258] | 81 | 19 |  |  |  | 
18259 (antisense eGe[5mC]eTe[5mC]eA*dG*dT*dG*dG*dA*d[5mC]*dA*dT*dG*dG*eAeTeGeAeG) [compound 18259] | 85 | 15 |  |  |  | % EXPRESSION JNK1 ([2]; dose response, 10 nM): 95%; % EXPRESSION JNK1 ([2]; dose response, 50 nM): 101%; % EXPRESSION JNK1 ([2]; dose response, 100 nM): 94%; % EXPRESSION JNK1 ([2]; dose response, 200 nM): 89%; % EXPRESSION JNK2 ([1]; dose response, 10 nM): 81%; % EXPRESSION JNK2 ([1]; dose response, 50 nM): 35%; % EXPRESSION JNK2 ([1]; dose response, 100 nM): 15%; % EXPRESSION JNK2 ([1]; dose response, 200 nM): 5%
18260 (antisense eAeTe[5mC]eTeG*d[5mC]*dG*dA*dG*dG*dT*dT*dT*d[5mC]*dA*eTe[5mC]eGeGe[5mC]) [compound 18260] |  |  |  |  |  | inhibition of rat JNK2 mRNA levels [1]: ≥ 60%
18261 (antisense e[5mC]e[5mC]eAe[5mC]e[5mC]*dA*dG*d[5mC]*dT*d[5mC]*d[5mC]*d[5mC]*dA*dT*dG*eTeGe[5mC]eTe[5mC]) [compound 18261] | 53 | 47 |  |  |  | 
18262 (antisense e[5mC]eAeGeTeT*dA*d[5mC]*dA*d[5mC]*dA*dT*dG*dA*dT*d[5mC]*eTeGeTe[5mC]eA) [compound 18262] | 50 | 50 |  |  |  | 
18263 (antisense eAeAeGeAeG*dG*dA*dT*dT*dA*dA*dG*dA*dG*dA*eTeTeAeTeT) [compound 18263] | 37 | 63 |  |  |  | 
18264 (DNA eAeGe[5mC]eAeG*dA*dG*dT*dG*dA*dA*dA*dT*dA*d[5mC]*eAeAe[5mC]eTeT; antisense) [compound 18264] | 52 | 48 |  |  |  | 
18265 (DNA eTeGeTe[5mC]eA*dG*d[5mC]*dT*d[5mC]*dT*dA*d[5mC]*dA*dT*dT*eAeGeGe[5mC]eA; antisense) [compound 18265] | 62 | 38 |  |  |  | inhibition of rat JNK2 mRNA levels [1]: ≥ 60%
18266 (DNA eAeGeTeAeA*dG*d[5mC]*d[5mC]*d[5mC]*dG*dG*dT*d[5mC]*dT*d[5mC]*e[5mC]eTeAeAeG; antisense) [compound 18266] | 34 | 66 |  |  |  | 
18267 (DNA eAeAeAeTeG*dG*dA*dA*dA*dA*dG*dG*dA*d[5mC]*dA*eGe[5mC]eAeGe[5mC]; antisense) [compound 18267] | 16 | 84 |  |  |  | 
21857 (DNA e[5mC]eAeAe[5mC]eG*dT*d[5mC]*d[5mC]*d[5mC]*dG*d[5mC]*dG*d[5mC]*dT*d[5mC]*eGeGe[5mC]e[5mC]eG; antisense) [compound 21857] |  |  | 24 | 91 |  | 
21858 (DNA e[5mC]e[5mC]eTeGe[5mC]*dT*d[5mC]*dG*d[5mC]*dG*dG*d[5mC]*dT*d[5mC]*d[5mC]*eGe[5mC]eGeTeT; antisense) [compound 21858] |  |  | 8 | 89 | at least 90% | 
21859 (DNA e[5mC]eTe[5mC]eAeT*dG*dA*dT*dG*dG*d[5mC]*dA*dA*dG*d[5mC]*eAeAeTeTeA) [compound 21859] |  |  | 5 | 106 | at least 90% | % EXPRESSION JNK1 ([2]; dose response, 10 nM): 74%; % EXPRESSION JNK1 ([2]; dose response, 50 nM): 25%; % EXPRESSION JNK1 ([2]; dose response, 100 nM): 11%; % EXPRESSION JNK1 ([2]; dose response, 200 nM): 8%; % EXPRESSION JNK2 ([1]; dose response, 10 nM): 101%; % EXPRESSION JNK2 ([1]; dose response, 50 nM): 98%; % EXPRESSION JNK2 ([1]; dose response, 100 nM): 99%; % EXPRESSION JNK2 ([1]; dose response, 200 nM): 101%
21860 (DNA eTeGeTeTeG*dT*d[5mC]*dA*d[5mC]*dG*dT*dT*dT*dA*d[5mC]*eTeTe[5mC]eTeG; antisense) [compound 21860] |  |  | 8 | 98 | at least 90% | 
21861 (DNA e[5mC]eGeGeTeA*dG*dG*d[5mC]*dT*d[5mC]*dG*d[5mC]*dT*dT*dA*eGe[5mC]eAeTeG; antisense) [compound 21861] |  |  | 6 | 13 | at least 90% | capacity to modulate both JNK1 and JNK2 (Pan JNK) [1]: demonstrated a capacity to modulate both JNK1 and JNK2
21862 (DNA e[5mC]eTeAeGeG*dG*dA*dT*dT*dT*d[5mC]*dT*dG*dT*dG*eGeTeGeTeG; antisense) [compound 21862] |  |  | 6 | 133 | at least 90% | 
21863 (DNA e[5mC]eAeGe[5mC]eA*dG*dA*dG*dT*dG*dA*dA*dG*dG*dT*eGe[5mC]eTeTeG; antisense) [compound 21863] |  |  | 24 | 107 |  | 
21864 (DNA eTe[5mC]eGeTeT*d[5mC]*d[5mC]*dT*dG*d[5mC]*dA*dG*dT*d[5mC]*d[5mC]*eTeTeGe[5mC]e[5mC]; antisense) [compound 21864] |  |  | 8 | 106 | at least 90% | 
21865 (DNA e[5mC]e[5mC]eAeTeT*dT*d[5mC]*dT*d[5mC]*d[5mC]*d[5mC]*dA*dT*dA*dA*eTeGe[5mC]eAe[5mC]; antisense) [compound 21865] |  |  | 5 | 50 | at least 90% | 
21866 (DNA eTeGeAeAeT*dT*d[5mC]*dA*dG*dG*dA*d[5mC]*dA*dA*dG*eGeTeGeTeT; antisense) [compound 21866] |  |  | 8 | 98 | at least 90% | 
21867 (DNA eAeGe[5mC]eTeT*d[5mC]*dG*dT*d[5mC]*dT*dA*d[5mC]*dG*dG*dA*eGeAeTe[5mC]e[5mC]; antisense) [compound 21867] |  |  | 5 | 21 | at least 90% | capacity to modulate both JNK1 and JNK2 (Pan JNK) [1]: demonstrated a capacity to modulate both JNK1 and JNK2
21868 (DNA e[5mC]eAe[5mC]eTe[5mC]*d[5mC]*dT*d[5mC]*dT*dA*dT*dT*dG*dT*dG*eTeGe[5mC]eTe[5mC]; antisense) [compound 21868] |  |  | 15 | 112 |  | 
21869 (DNA eGe[5mC]eTeGe[5mC]*dA*d[5mC]*d[5mC]*dT*dA*dA*dA*dG*dG*dA*eGeAe[5mC]eGeG; antisense) [compound 21869] |  |  | 30 | 93 |  | 
21870 (DNA e[5mC]e[5mC]eAeGeA*dG*dT*d[5mC]*dG*dG*dA*dT*d[5mC]*dT*dG*eTeGeGeAe[5mC]; antisense) [compound 21870] |  |  | 11 | 87 |  | 
